Experimental data taken from patent US11186585B2 (priority 2018, dated 2021).
Where “and” joins values, the source holds several entries; their conditions need not be identical. Identical values can stand only once.

What was measured:
[1] = system: Sprague-Dawley rats; assay: Antinociceptive activity, cold ethanol tail-flick test after oral gavage; format: in vivo, rat; conditions: oral gavage in sesame oil, 60 uM/kg, one dose; tail-flick at −20° C., cutoff 40 seconds
[2] = system: healthy volunteers; assay: Double-blind trial, heat pain threshold (hot water at 50° C.) after oral capsule; format: in vivo, human; conditions: oral, individual data, 33 45 mg, NB 35 mg, 39 68 mg
Procedure: Double-blind, NB hydrochloride and NB-39 controlled, trial of the antinociceptive effect of oral NB-33 in healthy volunteers. […] Each week a healthy volunteer would receive a pill from the assigned set in a random fashion and take it orally. […]
(§1) Following one week of a wash out period, each volunteer repeated the protocol until all pills from the assigned set were administered. The individual data for heat pain threshold as % MPE=[(test latency−baseline latency)/(baseline latency)]×100 and for miosis as % MPE=[(test diameter−baseline diameter)/(baseline diameter)]×100 are shown in Table 2 and Table 3 respectively.
(§2) Independent samples t-test was used to compare the means of % MPE analgesia and miosis in the two pairs of samples: NB-33 and NB and NB-33 and NB-39. All analyses were made using SPSS (v.25). • Bold indicates statistical significance at α=0.05

[3] = system: healthy volunteers; assay: Double-blind trial, miosis after oral capsule; format: in vivo, human; conditions: oral, individual data, 33 45 mg, NB 35 mg, 39 68 mg
Procedure: Double-blind, NB hydrochloride and NB-39 controlled, trial of the antinociceptive effect of oral NB-33 in healthy volunteers. Each of the three healthy volunteers was assigned a set of 6 non-transparent gelatin capsules as follows: 2×NB hydrochloride (MW=393.4; 39 mg), 2×NB-33 (MW=451.6; 45 mg) and 2×NB-39 (MW=680.0; 68 mg). Each week a healthy volunteer would receive a pill from the assigned set in a random fashion and take it orally. At T=0 hr, 0.25 hr, 0.5 hr, 1 hr, 1.5 hr, 2 hr, 3 hr and 5 hr followed oral administration a heat pain threshold was measured (hot water at 50° C.) as well as miosis.
as §1, §2

[4] = in vivo; cited from earlier work

Oc1ccc2c3c1OC1C(O)CCC4(O)C(C2)N(CC2CCC2)CCC314 (centres unmarked) [NB, 3-(cyclobutylmethyl)-1,2,3,4,5,6,7,7a-octahydro-4aH-4,12-methanobenzofuro[3,2-e]isoquinoline-4a,7,9-triol]
Analgesia (rat) [1]: moderate
% MPE (analgesia) ([2]; 0 hr (baseline)): 0.0 % MPE
% MPE (analgesia) ([2]; 0.25 hr): 0.0 % MPE and 29.5 % MPE and 5.3 % MPE (2×) and 56.3 % MPE and 21.4 % MPE
% MPE (analgesia) ([2]; 0.5 hr): 5.6 % MPE and 39.3 % MPE and 10.5 % MPE and 50.0 % MPE and 21.1 % MPE and 35.7 % MPE
% MPE (analgesia) ([2]; 1 hr): 50.0 % MPE and 34.4 % MPE and 42.1 % MPE and 87.5 % MPE and 47.4 % MPE and 57.1 % MPE
% MPE (analgesia) ([2]; 1.5 hr): 100.0 % MPE and 54.1 % MPE and 68.4 % MPE and 112.5 % MPE and 73.7 % MPE and 78.6 % MPE
% MPE (analgesia) ([2]; 2 hr): 94.4 % MPE and 54.1 % MPE and 94.7 % MPE and 162.5 % MPE and 57.9 % MPE and 50.0 % MPE
% MPE (analgesia) ([2]; 2.5 hr): 66.7 % MPE and 82.0 % MPE and 57.9 % MPE and 106.3 % MPE and 36.8 % MPE and 35.7 % MPE
% MPE (analgesia) ([2]; 3 hr): 22.2 % MPE and 32.8 % MPE and 68.4 % MPE and 37.5 % MPE and 57.9 % MPE and 0.0 % MPE
% MPE (analgesia) ([2]; 5 hr): −5.6 % MPE and 27.9 % MPE and 5.3 % MPE (2×) and 26.7 % MPE and 0.0 % MPE
% MPE (miosis) ([3]; 0 hr (baseline)): 0.0 % MPE
% MPE (miosis) ([3]; 0.25 hr): 3.1 % MPE and 9.4 % MPE and 6.7 % MPE and 0.0 % MPE and 3.2 % MPE and 2.9 % MPE
% MPE (miosis) ([3]; 0.5 hr): 9.4 % MPE (2×) and 37.5 % MPE and 0.0 % MPE and 9.7 % MPE and 8.8 % MPE
% MPE (miosis) ([3]; 1 hr): 21.9 % MPE (2×) and 46.9 % MPE and 6.7 % MPE and 45.2 % MPE and −2.9 % MPE
% MPE (miosis) ([3]; 1.5 hr): 17.2 % MPE (2×) and 65.6 % MPE and 25.0 % MPE and 45.2 % MPE and 29.4 % MPE
% MPE (miosis) ([3]; 2 hr): 18.8 % MPE and 31.3 % MPE (2×) and 55.6 % MPE and 58.1 % MPE and 11.8 % MPE
% MPE (miosis) ([3]; 2.5 hr): 18.8 % MPE and 3.1 % MPE and 50.0 % MPE and 25.0 % MPE and 25.8 % MPE and 26.5 % MPE
% MPE (miosis) ([3]; 3 hr): 6.2 % MPE (2×) and 33.3 % MPE and 21.9 % MPE and 16.1 % MPE and 20.6 % MPE
% MPE (miosis) ([3]; 5 hr): 6.2 % MPE (2×) and 3.1 % MPE and 22.2 % MPE and 9.7 % MPE and 7.8 % MPE
oral bioavailability [4]: low
